Patent US9598448B2, “Osmium (II) arene imino anti-cancer complexes” (University of Warwick, priority 2010, dated 2017)

Experiments:
[1] = test system: Leukemia HL-60 (TB); assay: NCI 60-cell line screen, HL-60 (TB); assay type: cell-based, human; details: 48 h
Experimental: The cells were treated for 48 h at five concentrations ranging from 0.01 to 100 μM. Three endpoints were calculated: GI 50 (the concentration inhibits cell growth by 50%): […]

[2] = test system: A549 non-small cell lung; assay: MTT growth inhibition assay, A549; assay type: cell-based, human; details: 96 h
Experimental: Tumor cell growth inhibition was assessed using the MTT assay.^13 2×10^3 cells were inoculated into a 96-well plate and incubated overnight at 37° C. in a humidified atmosphere containing 5% CO2. Complexes were solubilised in DMSO as above, and then diluted in complete cell culture medium to give a broad range of concentrations. Cisplatin was included in the screen as a comparator. Medium was removed from each well and replaced with complex or control solutions, and the plates then incubated for a further 96 hours. After 96 h culture medium was removed and 200 μL of 0.5 mg mL^−1 MTT solution (Sigma) in complete medium added to each well. Following further 4 h incubation, the solution was removed from each well and 150 μL of DMSO (Sigma) added to solubilise the formazan crystals resulting from MTT conversion. Absorbance values for the resulting solutions were read at 550 nm on a microplate reader and cell survival calculated as the absorbance of treated cells divided by the control. Results were expressed in terms of IC50 values (i.e. concentration of compound required to kill 50% of cells) and all experiments were performed in triplicate.
The following human cancer cell lines were cultured in RPMI 1640 cell culture medium supplemented with 1 mM sodium pyruvate, 2 mM L-glutamine and 10% fetal bovine serum (all from Sigma): A549 non-small cell lung, HCT-116 colon, MCF-7 breast, PC-3 prostate (all from LGC Promochem, Teddington, UK), A2780/cis ovarian (cisplatin-resistant) and RT-112 bladder (both from ECACC, Salisbury, UK).

[3] = test system: human tumor 60-cell line panel; assay: NCI/DTP human tumor 60-cell line panel screen; assay type: cell-based; details: NCI 60-cell line panel, MG-MID, 48 h
Experimental: The cells were treated for 48 h at five concentrations ranging from 0.01 to 100 μM. Three endpoints were calculated: GI 50 (the concentration inhibits cell growth by 50%):
TGI (the concentration inhibits cell growth by 100%)
LC 50 (the concentration kills original cells by 50%)
MG-MID (full-panel mean-graph midpoint).

[4] = test system: tubulin; assay: Tubulin polymerization assay; assay type: biochemical; details: Osmium Compounds at 10 μM; 37° C., 60 min
Experimental: To follow the anticancer mechanism indicated by COMPARE, We have investigated whether osmium complexes can interacted directly with tubulin.
A Cytoskeleton tubulin polymerization assay kit (catalog no BK004) was used in the tubulin polymerization study. Briefly, 10 μL of general tubulin buffer (80 mM PIPES, pH 6.9, 2 mM MgCl2, and 0.5 mM EGTA) containing osmium compound, colchicine or taxol was pipetted into the prewarmed 96 well microplate. Tubulin (defrosted to room temperature from −80° C. and then placed on ice before use) was diluted with tubulin polymerization buffer with 1 mM GTP to a final concentration of 4 mg mL^−1. Diluted tubulin (100 μL) was added into the wells containing osmium compound, colchicine or taxol. Diluted tubulin (100 μL) mixed with general tubulin buffer (10 μL) served as control. The absorbance at 340 nm was read immediately with a Tecan microplate reader.

[(η^6-p-cym)Os(Azpy-NMe2)I]PF6 [Complex 6]
GI50 [1]: < 0.05 µM | IC50 [2]: < 0.3 µM | GI50 [3]: 0.28 µM | LC50 [3]: 6.3 µM | TGI [3]: 1.17 µM | Inhibition of Tubulin Polimerziation [4]: 28.6%
